In ChEMBL document CHEMBL1201862, “PubChem BioAssay data set” (2004):
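All cell lines were grown in 96-well plates and treated with compound for 48 hours. Here, GI50 denotes the concentration required for 50% inhibition of growth.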 Activity calls are given as the source filed them. Cut-off read from the data, not from the text of the source: active = GI50 up to about 1.1 µM and inactive = higher. Where a SMILES comes first, the peptide text is derived from it. The star is where a group is joined. Fmoc = O=C(OCC1c2ccccc2-c2ccccc21)*; Boc = CC(C)(C)OC(=O)*

What was measured:
Assay in all cases: NCI-60 cell line screen, 48 h
[1] = tested on: CAKI-1
[2] = tested on: CCRF-CEM
[3] = tested on: COLO 205
[4] = tested on: HCC 2998
[5] = tested on: Hs-578T
[6] = tested on: LOX IMVI
[7] = tested on: MDA-MB-231
[8] = tested on: MDA-N
[9] = tested on: MOLT-4
[10] = tested on: NCI/ADR-RES
[11] = tested on: OVCAR-4
[12] = tested on: OVCAR-8
[13] = tested on: RPMI-8226
[14] = tested on: RXF 393
[15] = tested on: SK-MEL-28
[16] = tested on: SK-MEL-2
[17] = tested on: SK-OV-3
[18] = tested on: SNB-19
[19] = tested on: SW-620
[20] = tested on: UACC-257

| Compound | GI50 [1] | GI50 [2] | GI50 [3] | GI50 [4] | GI50 [5] | GI50 [6] | GI50 [7] | GI50 [8] | GI50 [9] | GI50 [10] | GI50 [11] | GI50 [12] | GI50 [13] | GI50 [14] | GI50 [15] | GI50 [16] | GI50 [17] | GI50 [18] | GI50 [19] | GI50 [20] |
| --- | --- | --- | --- | --- | --- | --- | --- | --- | --- | --- | --- | --- | --- | --- | --- | --- | --- | --- | --- | --- |
| C[C@]12CCC(=O)C=C1CC[C@@H]1[C@@H]2CC[C@]2(C)C(=O)/C(=C/c3ccncc3)C[C@@H]12 | 15.9 µM (inactive) | 14.7 µM (inactive) | 13.2 µM (inactive) | 16.7 µM (inactive) | 29.8 µM (inactive) | 15.7 µM (inactive) | 15.2 µM (inactive) | 20.1 µM (inactive) | 16.4 µM (inactive) | 26.2 µM (inactive) | 17.2 µM (inactive) | 23.3 µM (inactive) | 8.99 µM (inactive) | 15.6 µM (inactive) | 20 µM (inactive) | 14.5 µM (inactive) | 20 µM (inactive) | 13.2 µM (inactive) | 23.8 µM (inactive) | 13.4 µM (inactive) |
| COC(O)C12OC3CO[Si](C(C)C)(C(C)C)O[Si](C(C)C)(C(C)C)OC3C1Oc1nc(=O)ccn12 (centres undefined) | 18.2 µM (inactive) | 4.5 µM (inactive) | 12.7 µM (inactive) | 3.94 µM (inactive) | 2.67 µM (inactive) | 12.7 µM (inactive) | 17.1 µM (inactive) | 12.8 µM (inactive) | 2.15 µM (inactive) | 21.6 µM (inactive) | 14.2 µM (inactive) | 11.2 µM (inactive) | 1 µM (active) | 11.9 µM (inactive) | > 100 µM (inactive) | 12 µM (inactive) | 17.7 µM (inactive) | 14.4 µM (inactive) | > 36.8 µM (inactive) | 11.8 µM (inactive) |
| CNNC1=NS(=O)(=O)c2cc(C)c(Cl)cc2S1 | > 10 µM (inactive) | > 10 µM (inactive) | > 10 µM (inactive) | > 10 µM (inactive) | > 10 µM (inactive) | > 10 µM (inactive) | > 10 µM (inactive) | > 10 µM (inactive) | > 10 µM (inactive) | > 10 µM (inactive) | > 10 µM (inactive) | > 10 µM (inactive) | > 10 µM (inactive) | > 10 µM (inactive) | > 10 µM (inactive) | > 10 µM (inactive) | > 10 µM (inactive) | > 10 µM (inactive) | > 10 µM (inactive) | > 10 µM (inactive) |
| CC(C)(C)OC(=O)NCCCCC(NC(=O)C(Cc1c[nH]c2ccccc12)NC(=O)OCC1c2ccccc2-c2ccccc21)C(=O)O (centres undefined) (Fmoc-Trp-Lys(Boc)-OH; configuration not given here) | 17.1 µM (inactive) | 24.7 µM (inactive) | 64.7 µM (inactive) | 40.6 µM (inactive) | 30.3 µM (inactive) | 21.6 µM (inactive) | 27.5 µM (inactive) | 35.9 µM (inactive) | 19.8 µM (inactive) | > 100 µM (inactive) | 33.7 µM (inactive) | 44.4 µM (inactive) | 25 µM (inactive) | 59.4 µM (inactive) | 26.3 µM (inactive) | 23.1 µM (inactive) | 5 µM (inactive) | 27.3 µM (inactive) | 48.3 µM (inactive) | 79.3 µM (inactive) |
| CC1=CC(C)C/C=C/C2C3OC3(C)C(C)C3C(Cc4c[nH]c5ccccc45)NC(=O)C23C(=O)C=CC(=O)C1O (centres undefined) | 0.885 µM (active) | 0.247 µM (active) | 0.354 µM (active) | 2.6 µM (inactive) | 3.72 µM (inactive) | 2.88 µM (inactive) | 4.67 µM (inactive) | 5.53 µM (inactive) | 2.01 µM (inactive) | 24.3 µM (inactive) | 11.8 µM (inactive) | 19.5 µM (inactive) | 0.272 µM (active) | 1.38 µM (inactive) | 14.7 µM (inactive) | 15.8 µM (inactive) | 12.4 µM (inactive) | 11 µM (inactive) | 2.02 µM (inactive) | 6.27 µM (inactive) |
| CCOC(=O)COC1=Nc2cc(OC)c(OC)c3nc(Cl)cc(c23)C1=O | 1.96 µM (inactive) | 0.299 µM (active) | 1.92 µM (inactive) | 5.5 µM (inactive) | 2.77 µM (inactive) | 1.98 µM (inactive) | 1.76 µM (inactive) | 1.18 µM (inactive) | 0.383 µM (active) | 2.97 µM (inactive) | 1.67 µM (inactive) | 2.43 µM (inactive) | 1.52 µM (inactive) | 1.75 µM (inactive) | 1.99 µM (inactive) | 2 µM (inactive) | 10.1 µM (inactive) | 6.08 µM (inactive) | 2.16 µM (inactive) | 1.75 µM (inactive) |
| COc1cc(C=C2C(=O)NC(=S)NC2=O)cc(OC)c1OC | > 100 µM (inactive) | > 100 µM (inactive) | > 100 µM (inactive) | > 100 µM (inactive) | > 100 µM (inactive) | > 100 µM (inactive) | > 100 µM (inactive) | > 100 µM (inactive) | > 100 µM (inactive) | > 100 µM (inactive) | > 100 µM (inactive) | > 100 µM (inactive) | > 100 µM (inactive) | > 100 µM (inactive) | > 100 µM (inactive) | > 100 µM (inactive) | > 100 µM (inactive) | > 100 µM (inactive) | > 100 µM (inactive) | > 100 µM (inactive) |
| O=C(CC1C(=O)Nc2ccccc2[S+]1[O-])Nc1cccc(Cl)c1 (centres undefined) | 20.7 µM (inactive) | > 35.4 µM (inactive) | > 41 µM (inactive) | > 47.5 µM (inactive) | 38.1 µM (inactive) | > 100 µM (inactive) | 7.31 µM (inactive) | 18.6 µM (inactive) | > 37.7 µM (inactive) | 18.5 µM (inactive) | > 53.8 µM (inactive) | 33 µM (inactive) | 7.98 µM (inactive) | 20.9 µM (inactive) | > 57.7 µM (inactive) | 55.5 µM (inactive) | 31.3 µM (inactive) | 30.5 µM (inactive) | > 48 µM (inactive) | > 50.5 µM (inactive) |
| COc1ccc(/C=C/C(=O)N[C@@H]2C(=O)N3[C@@H]2SC(C)(C)[C@@H]3C(=O)O)cc1OC | > 100 µM (inactive) | > 100 µM (inactive) | > 100 µM (inactive) | > 100 µM (inactive) | > 100 µM (inactive) | > 100 µM (inactive) | > 100 µM (inactive) | > 100 µM (inactive) | > 100 µM (inactive) | > 100 µM (inactive) | > 100 µM (inactive) | > 100 µM (inactive) | > 100 µM (inactive) | > 100 µM (inactive) | > 100 µM (inactive) | > 100 µM (inactive) | > 100 µM (inactive) | > 100 µM (inactive) | > 100 µM (inactive) | > 100 µM (inactive) |
| O=C(/C=N/O)Nc1cc(Cl)c(Cl)cc1Cl | 24.3 µM (inactive) | 26.7 µM (inactive) | 26.8 µM (inactive) | 26.6 µM (inactive) | 29.2 µM (inactive) | 33.8 µM (inactive) | 25.8 µM (inactive) | 27.7 µM (inactive) | 15.1 µM (inactive) | 33.9 µM (inactive) | 26.1 µM (inactive) | 23.8 µM (inactive) | 27.9 µM (inactive) | 31.5 µM (inactive) | 41 µM (inactive) | 24.9 µM (inactive) | 27.8 µM (inactive) | 50.5 µM (inactive) | 35.7 µM (inactive) | 26.6 µM (inactive) |
| Cc1ccc(O)c(C(=O)/C=C/c2ccccc2)c1 | > 100 µM (inactive) | > 100 µM (inactive) | > 100 µM (inactive) | > 100 µM (inactive) | 78 µM (inactive) | > 100 µM (inactive) | > 100 µM (inactive) | > 100 µM (inactive) | 9.93 µM (inactive) | 53.5 µM (inactive) | 78.9 µM (inactive) | > 100 µM (inactive) | > 100 µM (inactive) | > 100 µM (inactive) | > 100 µM (inactive) | > 100 µM (inactive) | > 100 µM (inactive) | > 100 µM (inactive) | > 100 µM (inactive) | > 100 µM (inactive) |
| CCOP(=O)(OCC)/C(C#N)=C/c1ccc(-c2ccc(F)cc2F)o1 | 15.3 µM (inactive) | 14.6 µM (inactive) | 14.9 µM (inactive) | 14 µM (inactive) | > 10 µM (inactive) | 13.3 µM (inactive) | 16.7 µM (inactive) | 33.7 µM (inactive) | 10.6 µM (inactive) | 22.1 µM (inactive) | 18.2 µM (inactive) | 15.2 µM (inactive) | 18.4 µM (inactive) | 29 µM (inactive) | 14.8 µM (inactive) | 23.5 µM (inactive) | 14 µM (inactive) | 16.9 µM (inactive) | 18.7 µM (inactive) | 13.3 µM (inactive) |
| CCN1C(=O)C(=C/C=C/c2ccc([N+](=O)[O-])cc2)C(=O)N(CC)C1=S | 26.4 µM (inactive) | 31.8 µM (inactive) | 35.1 µM (inactive) | 43.4 µM (inactive) | 15.3 µM (inactive) | 18.3 µM (inactive) | 21.3 µM (inactive) | 24.4 µM (inactive) | 29.6 µM (inactive) | 19.5 µM (inactive) | 33 µM (inactive) | 20.9 µM (inactive) | 30.8 µM (inactive) | 17 µM (inactive) | 18 µM (inactive) | 23.8 µM (inactive) | > 100 µM (inactive) | 37.9 µM (inactive) | 19.1 µM (inactive) | 17.6 µM (inactive) |
| CC(=O)c1ccc(Oc2c3ccccc3nc3ccccc23)cc1 | 4.69 µM (inactive) | 2.82 µM (inactive) | 2.79 µM (inactive) | 9.48 µM (inactive) | 8.61 µM (inactive) | 5.86 µM (inactive) | 11.6 µM (inactive) | 4.27 µM (inactive) | – | 11.3 µM (inactive) | 5.93 µM (inactive) | 7.83 µM (inactive) | 2.77 µM (inactive) | 7.91 µM (inactive) | 14.7 µM (inactive) | 8.59 µM (inactive) | 15.7 µM (inactive) | 18.7 µM (inactive) | 4.33 µM (inactive) | 5.68 µM (inactive) |
